For test [1], the target named is T1, S. cerevisiae Mre11-Rad50 (MR) complex (Saccharomyces cerevisiae, UniProt P12753, K192A/K195A/K196A, form not given).
T1 construct: full-length Rad50 and Mre11 (C-terminal 1xFLAG on Mre11 given for MR-EQ), purified from yeast; 2:2 complex, no Xrs2; with Double-strand break repair protein MRE11
T1 sequence (P12753 1-1312 K192A/K195A/K196A): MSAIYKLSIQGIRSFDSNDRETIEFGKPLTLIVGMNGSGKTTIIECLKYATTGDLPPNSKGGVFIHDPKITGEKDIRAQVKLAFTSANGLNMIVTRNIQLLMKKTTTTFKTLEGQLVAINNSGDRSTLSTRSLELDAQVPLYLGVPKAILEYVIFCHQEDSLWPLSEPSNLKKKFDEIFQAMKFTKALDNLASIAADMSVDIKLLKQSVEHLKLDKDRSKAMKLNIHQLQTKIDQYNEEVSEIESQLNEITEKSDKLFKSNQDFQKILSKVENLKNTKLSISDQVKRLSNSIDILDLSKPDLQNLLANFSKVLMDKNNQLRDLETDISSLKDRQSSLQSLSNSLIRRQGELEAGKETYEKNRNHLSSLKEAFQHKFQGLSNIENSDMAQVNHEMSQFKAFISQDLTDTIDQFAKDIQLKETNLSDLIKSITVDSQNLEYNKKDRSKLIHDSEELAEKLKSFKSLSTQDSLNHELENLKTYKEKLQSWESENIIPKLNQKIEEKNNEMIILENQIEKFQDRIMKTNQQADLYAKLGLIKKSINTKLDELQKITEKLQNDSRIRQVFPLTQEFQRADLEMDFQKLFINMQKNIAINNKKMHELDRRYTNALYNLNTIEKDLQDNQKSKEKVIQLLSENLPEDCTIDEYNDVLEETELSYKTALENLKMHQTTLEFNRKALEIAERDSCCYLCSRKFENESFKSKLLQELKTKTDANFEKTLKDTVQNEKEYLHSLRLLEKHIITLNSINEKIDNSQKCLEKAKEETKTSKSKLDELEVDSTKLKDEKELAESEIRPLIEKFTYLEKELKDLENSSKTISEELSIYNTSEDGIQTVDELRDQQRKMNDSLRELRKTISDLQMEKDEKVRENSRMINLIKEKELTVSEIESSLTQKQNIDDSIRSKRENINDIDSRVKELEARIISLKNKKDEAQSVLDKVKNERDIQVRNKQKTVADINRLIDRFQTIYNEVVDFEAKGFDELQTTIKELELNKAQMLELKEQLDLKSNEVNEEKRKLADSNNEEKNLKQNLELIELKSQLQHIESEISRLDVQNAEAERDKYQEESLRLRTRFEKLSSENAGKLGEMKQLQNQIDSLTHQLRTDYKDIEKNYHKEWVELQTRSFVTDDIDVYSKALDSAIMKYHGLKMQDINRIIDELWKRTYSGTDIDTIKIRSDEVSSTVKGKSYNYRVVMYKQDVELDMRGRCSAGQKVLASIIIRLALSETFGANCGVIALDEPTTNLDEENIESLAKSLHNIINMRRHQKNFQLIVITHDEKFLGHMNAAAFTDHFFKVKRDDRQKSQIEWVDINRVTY
T1 sequence (P32829 1-692 partner): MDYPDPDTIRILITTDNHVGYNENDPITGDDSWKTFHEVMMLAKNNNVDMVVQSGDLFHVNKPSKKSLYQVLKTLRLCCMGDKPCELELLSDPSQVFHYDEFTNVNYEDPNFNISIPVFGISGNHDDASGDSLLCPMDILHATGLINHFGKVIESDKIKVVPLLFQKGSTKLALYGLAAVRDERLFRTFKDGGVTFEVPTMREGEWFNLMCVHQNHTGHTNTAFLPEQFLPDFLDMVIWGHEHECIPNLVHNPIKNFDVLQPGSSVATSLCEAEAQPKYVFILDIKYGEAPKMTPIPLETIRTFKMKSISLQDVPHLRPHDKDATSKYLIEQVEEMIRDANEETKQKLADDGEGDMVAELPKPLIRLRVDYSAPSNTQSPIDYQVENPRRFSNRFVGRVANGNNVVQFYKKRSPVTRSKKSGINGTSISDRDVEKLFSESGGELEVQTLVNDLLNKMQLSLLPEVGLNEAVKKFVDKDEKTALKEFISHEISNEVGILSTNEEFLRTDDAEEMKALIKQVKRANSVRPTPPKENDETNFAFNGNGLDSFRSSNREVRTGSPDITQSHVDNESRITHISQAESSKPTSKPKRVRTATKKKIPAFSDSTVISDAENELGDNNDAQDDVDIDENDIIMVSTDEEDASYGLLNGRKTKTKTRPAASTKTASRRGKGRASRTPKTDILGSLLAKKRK
Briefly: ATP hydrolysis, radiolabelled phosphate by thin-layer chromatography. Type of test: biochemical. To be noted: 0-2 uM MR, ss and dsDNA, MgCl2, 90 min; labelled compound.

Test [2] addresses T2, S. cerevisiae Mre11-Rad50 (MR) complex (Saccharomyces cerevisiae, UniProt P12753, E1235Q, form not given).
T2 construct: full-length Rad50 and Mre11 (C-terminal 1xFLAG on Mre11 given for MR-EQ), purified from yeast; 2:2 complex, no Xrs2; with Double-strand break repair protein MRE11
T2 sequence (P12753 1-1312 E1235Q): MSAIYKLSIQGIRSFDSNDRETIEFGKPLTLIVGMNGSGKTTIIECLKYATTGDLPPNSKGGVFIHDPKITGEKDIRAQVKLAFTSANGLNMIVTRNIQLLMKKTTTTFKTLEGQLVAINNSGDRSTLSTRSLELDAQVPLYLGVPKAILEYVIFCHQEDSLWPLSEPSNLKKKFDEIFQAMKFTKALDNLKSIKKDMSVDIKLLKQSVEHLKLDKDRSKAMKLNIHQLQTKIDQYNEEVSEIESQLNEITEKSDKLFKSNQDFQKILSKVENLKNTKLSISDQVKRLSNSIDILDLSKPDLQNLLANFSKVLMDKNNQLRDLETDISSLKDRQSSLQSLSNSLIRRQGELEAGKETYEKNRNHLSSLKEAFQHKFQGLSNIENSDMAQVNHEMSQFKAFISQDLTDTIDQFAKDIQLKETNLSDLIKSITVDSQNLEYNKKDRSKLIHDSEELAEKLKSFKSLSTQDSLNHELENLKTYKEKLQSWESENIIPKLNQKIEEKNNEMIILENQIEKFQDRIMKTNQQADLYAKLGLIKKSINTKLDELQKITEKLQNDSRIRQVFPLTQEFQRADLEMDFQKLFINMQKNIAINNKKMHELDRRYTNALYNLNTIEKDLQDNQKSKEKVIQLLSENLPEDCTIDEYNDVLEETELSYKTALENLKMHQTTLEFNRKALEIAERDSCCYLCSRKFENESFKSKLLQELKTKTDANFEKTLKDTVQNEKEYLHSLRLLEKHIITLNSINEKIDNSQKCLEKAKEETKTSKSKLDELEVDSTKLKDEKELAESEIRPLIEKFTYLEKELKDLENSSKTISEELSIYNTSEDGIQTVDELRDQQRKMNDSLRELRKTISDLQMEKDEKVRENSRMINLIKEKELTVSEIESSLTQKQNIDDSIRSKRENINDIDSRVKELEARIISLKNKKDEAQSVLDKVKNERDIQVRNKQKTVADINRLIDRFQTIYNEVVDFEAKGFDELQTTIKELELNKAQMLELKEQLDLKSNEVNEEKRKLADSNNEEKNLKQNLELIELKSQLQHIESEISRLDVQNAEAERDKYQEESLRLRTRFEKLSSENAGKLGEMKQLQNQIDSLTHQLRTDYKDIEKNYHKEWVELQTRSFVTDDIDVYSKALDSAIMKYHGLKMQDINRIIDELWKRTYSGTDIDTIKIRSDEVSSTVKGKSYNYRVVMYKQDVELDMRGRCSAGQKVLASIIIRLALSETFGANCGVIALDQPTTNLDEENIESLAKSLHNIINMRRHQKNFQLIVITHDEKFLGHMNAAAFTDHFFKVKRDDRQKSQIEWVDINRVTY
T2 sequence (P32829 1-692 partner): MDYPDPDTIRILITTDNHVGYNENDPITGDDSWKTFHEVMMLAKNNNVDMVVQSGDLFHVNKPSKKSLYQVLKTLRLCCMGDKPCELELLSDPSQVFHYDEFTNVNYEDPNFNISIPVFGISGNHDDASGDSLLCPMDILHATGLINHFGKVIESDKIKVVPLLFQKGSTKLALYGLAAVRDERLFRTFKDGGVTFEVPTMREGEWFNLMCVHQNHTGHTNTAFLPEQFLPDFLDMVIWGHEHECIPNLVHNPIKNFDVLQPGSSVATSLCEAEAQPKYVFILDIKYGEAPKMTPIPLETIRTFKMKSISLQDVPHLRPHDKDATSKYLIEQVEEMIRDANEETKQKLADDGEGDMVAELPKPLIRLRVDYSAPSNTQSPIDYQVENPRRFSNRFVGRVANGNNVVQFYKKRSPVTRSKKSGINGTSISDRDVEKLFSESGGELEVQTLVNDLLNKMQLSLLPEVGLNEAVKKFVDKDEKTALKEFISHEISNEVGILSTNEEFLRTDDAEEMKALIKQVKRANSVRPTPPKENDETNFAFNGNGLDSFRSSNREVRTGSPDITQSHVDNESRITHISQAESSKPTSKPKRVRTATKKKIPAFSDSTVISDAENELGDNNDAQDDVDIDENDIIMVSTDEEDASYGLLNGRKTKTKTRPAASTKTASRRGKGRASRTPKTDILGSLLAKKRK
The test can be described thus: cryo-EM structure, […] Å. It counts as binding. Conditions: with 83-mer dsDNA, MgCl2 and MnCl2; ATP bound at Walker A/B interface of Rad50 dimer; hydrolysis-deficient mutant.

Test [3] deals with T3, S. cerevisiae Rad50-E1235Q (R^EQ of the purified MR^EQ complex) (S. cerevisiae, UniProt P12753 1-1312, E1235 residue of Rad50 was mutated to Q).
T3 construct: Rad50, S. cerevisiae; residues 239-1089 (coiled coil arm and Zn hook) are said to be flexible and not traced; also called Rad50-EQ; source: S. cerevisiae, purified from yeast extracts together with Mre11-FLAG (FLAG-Agarose, Heparin-Sepharose, gel filtration)
T3 sequence: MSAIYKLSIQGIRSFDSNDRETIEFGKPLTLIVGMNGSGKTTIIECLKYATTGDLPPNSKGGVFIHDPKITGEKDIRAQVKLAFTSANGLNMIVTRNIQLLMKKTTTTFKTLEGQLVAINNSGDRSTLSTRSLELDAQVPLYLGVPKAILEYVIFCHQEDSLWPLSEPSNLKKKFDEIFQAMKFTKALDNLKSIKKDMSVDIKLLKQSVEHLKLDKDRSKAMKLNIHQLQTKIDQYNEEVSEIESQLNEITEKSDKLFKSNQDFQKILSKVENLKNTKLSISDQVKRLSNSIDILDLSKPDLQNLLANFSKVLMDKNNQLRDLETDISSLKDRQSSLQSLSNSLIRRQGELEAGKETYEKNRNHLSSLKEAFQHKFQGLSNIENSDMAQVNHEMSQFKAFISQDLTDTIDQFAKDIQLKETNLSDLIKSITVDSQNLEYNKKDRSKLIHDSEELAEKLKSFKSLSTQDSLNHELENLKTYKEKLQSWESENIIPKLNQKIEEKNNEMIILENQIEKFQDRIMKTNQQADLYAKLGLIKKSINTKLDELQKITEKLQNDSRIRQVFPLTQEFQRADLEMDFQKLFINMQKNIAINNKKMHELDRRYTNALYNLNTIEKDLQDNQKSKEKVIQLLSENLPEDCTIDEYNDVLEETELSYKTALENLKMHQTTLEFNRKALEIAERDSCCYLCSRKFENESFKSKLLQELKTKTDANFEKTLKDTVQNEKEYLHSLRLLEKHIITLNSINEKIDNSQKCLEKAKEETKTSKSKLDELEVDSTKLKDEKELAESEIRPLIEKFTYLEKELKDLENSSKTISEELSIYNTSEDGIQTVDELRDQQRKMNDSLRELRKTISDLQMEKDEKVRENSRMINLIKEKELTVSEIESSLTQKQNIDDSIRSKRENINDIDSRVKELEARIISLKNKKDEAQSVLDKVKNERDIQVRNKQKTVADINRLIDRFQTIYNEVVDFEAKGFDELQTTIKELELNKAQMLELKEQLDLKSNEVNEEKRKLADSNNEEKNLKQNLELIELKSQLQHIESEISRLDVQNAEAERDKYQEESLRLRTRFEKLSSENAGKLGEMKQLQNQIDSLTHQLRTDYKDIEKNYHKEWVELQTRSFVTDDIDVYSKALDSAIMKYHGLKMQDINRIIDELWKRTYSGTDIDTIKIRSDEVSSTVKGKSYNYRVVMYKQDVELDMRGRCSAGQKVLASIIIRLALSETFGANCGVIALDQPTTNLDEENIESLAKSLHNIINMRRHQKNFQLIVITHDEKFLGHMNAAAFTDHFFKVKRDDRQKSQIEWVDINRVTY
The test can be described thus: cryo-EM structure; purified MR^EQ incubated with a 83-mer dsDNA in the presence of ATP, MgCl2 and MnCl2; 3.2 Å. To be noted: both partners purified.

With `Nc1ncnc2c1ncn2[C@@H]1O[C@H](COP(=O)(O)OP(=O)(O)OP(=O)(O)O)[C@@H](O)[C@H]1O` [ATP], the “ATP hydrolysis, radiolabelled phosphate by thin-layer chromatography” value in test [1] is “Rad50–3KA, Rad50-K60A R1201A and Rad50-R131A R1201A were as defective as the Rad50-EQ mutant”. Moreover, the “cryo-EM structure, 3.2 Å” value in test [2] was “MR^EQ was incubated with a 83-mer double stranded DNA (dsDNA) in the presence of ATP”.

B1: S. cerevisiae Mre11 with a C-terminal 1xFLAG tag (Mre11 of the purified MR^EQ complex) (enzyme)
chain: MDYPDPDTIRILITTDNHVGYNENDPITGDDSWKTFHEVMMLAKNNNVDMVVQSGDLFHVNKPSKKSLYQVLKTLRLCCMGDKPCELELLSDPSQVFHYDEFTNVNYEDPNFNISIPVFGISGNHDDASGDSLLCPMDILHATGLINHFGKVIESDKIKVVPLLFQKGSTKLALYGLAAVRDERLFRTFKDGGVTFEVPTMREGEWFNLMCVHQNHTGHTNTAFLPEQFLPDFLDMVIWGHEHECIPNLVHNPIKNFDVLQPGSSVATSLCEAEAQPKYVFILDIKYGEAPKMTPIPLETIRTFKMKSISLQDVPHLRPHDKDATSKYLIEQVEEMIRDANEETKQKLADDGEGDMVAELPKPLIRLRVDYSAPSNTQSPIDYQVENPRRFSNRFVGRVANGNNVVQFYKKRSPVTRSKKSGINGTSISDRDVEKLFSESGGELEVQTLVNDLLNKMQLSLLPEVGLNEAVKKFVDKDEKTALKEFISHEISNEVGILSTNEEFLRTDDAEEMKALIKQVKRANSVRPTPPKENDETNFAFNGNGLDSFRSSNREVRTGSPDITQSHVDNESRITHISQAESSKPTSKPKRVRTATKKKIPAFSDSTVISDAENELGDNNDAQDDVDIDENDIIMVSTDEEDASYGLLNGRKTKTKTRPAASTKTASRRGKGRASRTPKTDILGSLLAKKRK
notes: Mre11, S. cerevisiae; residues 413-441 and 508-692 are said to be flexible and not traced; Two symmetry-related Mre11 subunits stand in the structure; also called M of MR^EQ; source: S. cerevisiae, purified from yeast extracts together with Rad50-E1235Q (FLAG-Agarose, Heparin-Sepharose, gel filtration); not shown: 1xFLAG, C-terminal, kept
Regarding B1, the binding result in test [3] was “binds”.

For the origin of these results see paper PMC11661359, “Structure guided functional analysis of the S. cerevisiae Mre11 complex” (Research Square, 2024).
